# According to publication PMC5218480 (PLoS ONE, 2017):
# System: MV-4-11 cells
# Experiment: Gene expression microarray analysis (Affymetrix PrimeView) and GSEA
# Assay type: cell-based, human
# Design: RFU PODN (11730768_x_at) / Fold change /veh PODN (11730768_x_at) / RFU LINC00158 (11744669_a_at) / Fold change /veh LINC00158 (11744669_a_at) / RFU DUSP10 (11751237_a_at) / Fold change /veh DUSP10 (11751237_a_at) / RFU ID3 (11757404_x_at) / Fold change /veh ID3 (11757404_x_at) / RFU PLEKHG5 (11737974_s_at) / Fold change /veh PLEKHG5 (11737974_s_at) / RFU LRRC4B (11730491_at) / Fold change /veh LRRC4B (11730491_at) / RFU GIMAP4 (11747438_a_at) / Fold change /veh GIMAP4 (11747438_a_at) / RFU KRT8 (11758183_x_at) / Fold change /veh KRT8 (11758183_x_at) / RFU CNN1 (11734310_a_at) / Fold change /veh CNN1 (11734310_a_at) / RFU VPS37D (11726825_at) / Fold change /veh VPS37D (11726825_at) / RFU C10orf10 (11716522_x_at) / Fold change /veh C10orf10 (11716522_x_at) / RFU KIR2DL2 /// KIR2DL4 /// KIR2DL5A /// KIR2DL5B /// KIR2DS1 /// KIR2DS2 /// KIR2DS3 /// KIR2DS4 /// KIR3DL3 /// KIR3DL3 /// KIR3DS1 (11738374_at) / Fold change /veh KIR2DL2 /// KIR2DL4 /// KIR2DL5A /// KIR2DL5B /// KIR2DS1 /// KIR2DS2 /// KIR2DS3 /// KIR2DS4 /// KIR3DL3 /// KIR3DL3 /// KIR3DS1 (11738374_at) / RFU C1QL1 (11718748_at) / Fold change /veh C1QL1 (11718748_at) / RFU TMPRSS4 (11747572_a_at) / Fold change /veh TMPRSS4 (11747572_a_at) / RFU HAMP (11756126_x_at) / Fold change /veh HAMP (11756126_x_at) / RFU RNFT2 (11725882_a_at) / Fold change /veh RNFT2 (11725882_a_at) / RFU NR4A2 (11747474_a_at) / Fold change /veh NR4A2 (11747474_a_at) / RFU ABCC12 (11746883_a_at) / Fold change /veh ABCC12 (11746883_a_at) / RFU TMEM136 (11760407_x_at) / Fold change /veh TMEM136 (11760407_x_at) / RFU CLDN22 /// WWC2 (11732394_at) / Fold change /veh CLDN22 /// WWC2 (11732394_at) / RFU HLA-DPB1 (11760878_x_at) / Fold change /veh HLA-DPB1 (11760878_x_at) / RFU SPINT1 (11716480_a_at) / Fold change /veh SPINT1 (11716480_a_at) / RFU GAP43 (11754022_s_at) / Fold change /veh GAP43 (11754022_s_at) / RFU A4GNT (11735810_at) / Fold change /veh A4GNT (11735810_at) / RFU PRB3 (11715151_x_at) / Fold change /veh PRB3 (11715151_x_at) / RFU TUBB4B (11761932_at) / Fold change /veh TUBB4B (11761932_at) / RFU CAPN14 (11732068_a_at) / Fold change /veh CAPN14 (11732068_a_at) / RFU TMCC2 (11721928_a_at) / Fold change /veh TMCC2 (11721928_a_at) / RFU IRGQ (11745062_a_at) / Fold change /veh IRGQ (11745062_a_at) / RFU FAM174B (11720279_a_at) / Fold change /veh FAM174B (11720279_a_at) / RFU TMPRSS4 (11748680_a_at) / Fold change /veh TMPRSS4 (11748680_a_at) / RFU FAM212B (11763350_a_at) / Fold change /veh FAM212B (11763350_a_at) / RFU PLEKHG5 (11743358_a_at) / Fold change /veh PLEKHG5 (11743358_a_at) / RFU ZSCAN30 (11745921_a_at) / Fold change /veh ZSCAN30 (11745921_a_at) / RFU CMKLR1 (11741424_a_at) / Fold change /veh CMKLR1 (11741424_a_at) / RFU LOC101060620 /// MAPK8IP1 (11723275_at) / Fold change /veh LOC101060620 /// MAPK8IP1 (11723275_at) / RFU SPTSSB (11747773_x_at) / Fold change /veh SPTSSB (11747773_x_at) / RFU PRSS12 (11739890_at) / Fold change /veh PRSS12 (11739890_at) / RFU BIN1 (11741810_x_at) / Fold change /veh BIN1 (11741810_x_at) / RFU WNT11 (11732464_a_at) / Fold change /veh WNT11 (11732464_a_at) / RFU C10orf10 (11716521_a_at) / Fold change /veh C10orf10 (11716521_a_at) / RFU C5orf56 (11738089_at) / Fold change /veh C5orf56 (11738089_at) / RFU CYB561 (11721691_x_at) / Fold change /veh CYB561 (11721691_x_at) / RFU ANKRD19P (11752326_a_at) / Fold change /veh ANKRD19P (11752326_a_at) / RFU OR2T12 /// OR2T33 /// OR2T8 (11738714_s_at) / Fold change /veh OR2T12 /// OR2T33 /// OR2T8 (11738714_s_at) / RFU VCAN (11748164_a_at) / Fold change /veh VCAN (11748164_a_at) / RFU JSRP1 (11732532_at) / Fold change /veh JSRP1 (11732532_at) / RFU KRTAP10-11 (11738290_x_at) / Fold change /veh KRTAP10-11 (11738290_x_at) / RFU MYO3A (11730013_a_at) / Fold change /veh MYO3A (11730013_a_at) / RFU EBF3 (11725865_a_at) / Fold change /veh EBF3 (11725865_a_at) / RFU CAMK2N1 (11719241_x_at) / Fold change /veh CAMK2N1 (11719241_x_at) / RFU C5orf56 (11738088_a_at) / Fold change /veh C5orf56 (11738088_a_at) / RFU OLFML3 (11715873_a_at) / Fold change /veh OLFML3 (11715873_a_at) / RFU LOC100653217 /// NTM (11731650_a_at) / Fold change /veh LOC100653217 /// NTM (11731650_a_at) / RFU MAPK11 (11762145_a_at) / Fold change /veh MAPK11 (11762145_a_at) / RFU FIZ1 (11724087_x_at) / Fold change /veh FIZ1 (11724087_x_at) / RFU OASL (11726364_x_at) / Fold change /veh OASL (11726364_x_at) / RFU SOX15 (11748057_x_at) / Fold change /veh SOX15 (11748057_x_at) / RFU CD79A (11719716_a_at) / Fold change /veh CD79A (11719716_a_at) / RFU HIST1H1D (11736915_at) / Fold change /veh HIST1H1D (11736915_at) / RFU CASKIN2 (11723855_a_at) / Fold change /veh CASKIN2 (11723855_a_at) / RFU LOC730098 (11760151_x_at) / Fold change /veh LOC730098 (11760151_x_at) / RFU OR4N2 (11742367_at) / Fold change /veh OR4N2 (11742367_at) / RFU PRRT2 (11749266_a_at) / Fold change /veh PRRT2 (11749266_a_at) / RFU SNX32 (11753110_a_at) / Fold change /veh SNX32 (11753110_a_at) / RFU CDHR5 (11726645_a_at) / Fold change /veh CDHR5 (11726645_a_at) / RFU RCAN1 (11760418_a_at) / Fold change /veh RCAN1 (11760418_a_at) / RFU FAM167A (11723789_a_at) / Fold change /veh FAM167A (11723789_a_at) / RFU FAM26E (11764081_at) / Fold change /veh FAM26E (11764081_at) / RFU ISYNA1 (11749810_s_at) / Fold change /veh ISYNA1 (11749810_s_at) / RFU ACY1 (11761880_at) / Fold change /veh ACY1 (11761880_at) / RFU 11764098_at / Fold change /veh 11764098_at / RFU SAMD14 (11745864_x_at) / Fold change /veh SAMD14 (11745864_x_at) / RFU NPB (11741838_a_at) / Fold change /veh NPB (11741838_a_at) / RFU TMPRSS6 (11731388_a_at) / Fold change /veh TMPRSS6 (11731388_a_at) / RFU KRTAP10-2 (11738614_at) / Fold change /veh KRTAP10-2 (11738614_at) / RFU ARHGAP8 /// PRR5-ARHGAP8 (11727945_x_at) / Fold change /veh ARHGAP8 /// PRR5-ARHGAP8 (11727945_x_at) / RFU KRTAP5-7 /// NADSYN1 (11734609_at) / Fold change /veh KRTAP5-7 /// NADSYN1 (11734609_at) / RFU RASL12 (11751679_a_at) / Fold change /veh RASL12 (11751679_a_at) / RFU CDKN2B (11736163_a_at) / Fold change /veh CDKN2B (11736163_a_at) / RFU PRF1 (11729649_at) / Fold change /veh PRF1 (11729649_at) / RFU, ZNF638 /// ZNF638-IT1 / Fold change vs veh, ZNF638 /// ZNF638-IT1 / RFU, PANK3 / Fold change vs veh, PANK3 / RFU, SH3YL1 / Fold change vs veh, SH3YL1 / RFU, ZEB2 / Fold change vs veh, ZEB2 / RFU, NRIP1 / Fold change vs veh, NRIP1 / RFU, PTTG1IP / Fold change vs veh, PTTG1IP / RFU, CAPN2 / Fold change vs veh, CAPN2 / RFU, MED14 / Fold change vs veh, MED14 / RFU, SNORA58 / Fold change vs veh, SNORA58 / RFU, C1orf63 / Fold change vs veh, C1orf63 / RFU, LRRFIP1 / Fold change vs veh, LRRFIP1 / RFU, NDUFAF7 / Fold change vs veh, NDUFAF7 / RFU, SLC12A2 / Fold change vs veh, SLC12A2 / RFU, IBTK / Fold change vs veh, IBTK / RFU, ESF1 / Fold change vs veh, ESF1 / Fold change vs veh, TMEM50B / RFU, TAOK1 / Fold change vs veh, TAOK1 / RFU, ACBD3 / Fold change vs veh, ACBD3 / RFU, TMA16 / Fold change vs veh, TMA16 / RFU, RWDD3 / Fold change vs veh, RWDD3 / RFU, BCAT1 / Fold change vs veh, BCAT1 / RFU, EDEM3 / Fold change vs veh, EDEM3 / RFU, TMEM33 / Fold change vs veh, TMEM33 / RFU, WDR75 / Fold change vs veh, WDR75 / RFU, AHCTF1 / Fold change vs veh, AHCTF1 / RFU, TFRC / Fold change vs veh, TFRC / RFU, ZDHHC17 / Fold change vs veh, ZDHHC17 / RFU, NOM1 / Fold change vs veh, NOM1 / RFU, ARL8B / Fold change vs veh, ARL8B / RFU, ZBTB11 / Fold change vs veh, ZBTB11 / RFU, TAMM41 / Fold change vs veh, TAMM41 / RFU, KIAA1704 /// LOC100996395 / Fold change vs veh, KIAA1704 /// LOC100996395 / RFU, ING1 / Fold change vs veh, ING1 / RFU, TRMT61B / Fold change vs veh, TRMT61B / RFU, FUBP3 / Fold change vs veh, FUBP3 / RFU, TP53 / Fold change vs veh, TP53 / RFU, TNKS2 / Fold change vs veh, TNKS2 / RFU, ZFP14 / Fold change vs veh, ZFP14 / RFU, ACTR2 / Fold change vs veh, ACTR2 / RFU, PPP3R1 / Fold change vs veh, PPP3R1 / RFU, PIK3R1 / Fold change vs veh, PIK3R1 / RFU, HNRNPA1 / Fold change vs veh, HNRNPA1 / RFU, RNF170 / Fold change vs veh, RNF170 / RFU, ZNF28 / Fold change vs veh, ZNF28 / RFU, RNGTT / Fold change vs veh, RNGTT / RFU, OGT / Fold change vs veh, OGT / RFU, BRD1 / Fold change vs veh, BRD1 / RFU, MARS / Fold change vs veh, MARS / RFU, ZNF655 / Fold change vs veh, ZNF655 / RFU, FAHD1 / Fold change vs veh, FAHD1 / RFU, BDP1 / Fold change vs veh, BDP1 / RFU, LRRCC1 / Fold change vs veh, LRRCC1 / RFU, ARID1A / Fold change vs veh, ARID1A / RFU, ZNF146 / Fold change vs veh, ZNF146 / RFU, ZNF330 / Fold change vs veh, ZNF330 / RFU, GPN3 / Fold change vs veh, GPN3 / RFU, C9orf123 / Fold change vs veh, C9orf123 / RFU, N4BP2L2 / Fold change vs veh, N4BP2L2 / RFU, ARFIP1 / Fold change vs veh, ARFIP1 / RFU, FAM179B / Fold change vs veh, FAM179B / RFU, BCL10 / Fold change vs veh, BCL10 / RFU, UHRF1BP1L / Fold change vs veh, UHRF1BP1L / RFU, BET1 / Fold change vs veh, BET1 / RFU, CNOT2 / Fold change vs veh, CNOT2 / RFU, ZNF268 / Fold change vs veh, ZNF268 / Fold change vs veh, ZNF507 / RFU, DGCR2 / Fold change vs veh, DGCR2 / RFU, WDSUB1 / Fold change vs veh, WDSUB1 / Fold change vs veh, HSP90B1 /// MIR3652 / RFU, ADSS / Fold change vs veh, ADSS / RFU, GK / Fold change vs veh, GK / RFU, ZNF148 / Fold change vs veh, ZNF148 / RFU, TAF9 / Fold change vs veh, TAF9 / RFU, SLC1A5 / Fold change vs veh, SLC1A5 / RFU, SLMO2 / Fold change vs veh, SLMO2 / RFU, ABCC4 / Fold change vs veh, ABCC4 / RFU, LOC101060439 /// RAP1B / Fold change vs veh, LOC101060439 /// RAP1B / RFU, RFX7 / Fold change vs veh, RFX7 / RFU, GTPBP10 / Fold change vs veh, GTPBP10 / RFU, CNEP1R1 / Fold change vs veh, CNEP1R1 / RFU, BIVM-ERCC5 /// ERCC5 / Fold change vs veh, BIVM-ERCC5 /// ERCC5 / RFU, ILF3 / Fold change vs veh, ILF3 / RFU 11762660_at / Fold change /veh 11762660_at / RFU VCAN (11757783_s_at) / Fold change /veh VCAN (11757783_s_at) / RFU DDX43 (11728927_at) / Fold change /veh DDX43 (11728927_at) / RFU KRT8 (11758188_x_at) / Fold change /veh KRT8 (11758188_x_at) / RFU NKD1 (11759106_at) / Fold change /veh NKD1 (11759106_at) / RFU SRD5A1 (11742802_a_at) / Fold change /veh SRD5A1 (11742802_a_at) / RFU TPSAB1 /// TPSB2 (11721975_s_at) / Fold change /veh TPSAB1 /// TPSB2 (11721975_s_at) / RFU GSTM3 (11746129_a_at) / Fold change /veh GSTM3 (11746129_a_at) / RFU IL23R (11737362_x_at) / Fold change /veh IL23R (11737362_x_at) / RFU TMEM51 (11727254_a_at) / Fold change /veh TMEM51 (11727254_a_at) / RFU PIWIL2 (11732686_x_at) / Fold change /veh PIWIL2 (11732686_x_at) / RFU ORM1 (11744905_x_at) / Fold change /veh ORM1 (11744905_x_at) / RFU CCDC152 (11743942_at) / Fold change /veh CCDC152 (11743942_at) / RFU ECM1 (11717891_a_at) / Fold change /veh ECM1 (11717891_a_at) / RFU IL23R (11748794_a_at) / Fold change /veh IL23R (11748794_a_at) / RFU TNFAIP8L3 (11732012_x_at) / Fold change /veh TNFAIP8L3 (11732012_x_at) / RFU MBOAT4 (11741988_at) / Fold change /veh MBOAT4 (11741988_at) / RFU 11764193_at / Fold change /veh 11764193_at / RFU TMEM53 (11763286_at) / Fold change /veh TMEM53 (11763286_at) / RFU MAGEB2 (11727129_at) / Fold change /veh MAGEB2 (11727129_at) / RFU TMEM200A (11744735_a_at) / Fold change /veh TMEM200A (11744735_a_at) / RFU CCDC152 (11751479_a_at) / Fold change /veh CCDC152 (11751479_a_at) / RFU FAM211A (11726209_a_at) / Fold change /veh FAM211A (11726209_a_at) / RFU RGS16 (11746705_a_at) / Fold change /veh RGS16 (11746705_a_at) / RFU VCAN (11755009_s_at) / Fold change /veh VCAN (11755009_s_at) / RFU RHOB (11743442_s_at) / Fold change /veh RHOB (11743442_s_at) / RFU RGS16 (11720943_a_at) / Fold change /veh RGS16 (11720943_a_at) / RFU RGS16 (11720944_at) / Fold change /veh RGS16 (11720944_at) / RFU, VPS4B / Fold change vs veh, VPS4B / RFU, CREB1 / Fold change vs veh, CREB1 / RFU, DNAJC13 / Fold change vs veh, DNAJC13 / RFU, GNAQ / Fold change vs veh, GNAQ / RFU, CDK5R1 / Fold change vs veh, CDK5R1 / RFU, ZRANB3 / Fold change vs veh, ZRANB3 / RFU, CUL4A / Fold change vs veh, CUL4A / RFU, CCNY / Fold change vs veh, CCNY / RFU, UFL1 / Fold change vs veh, UFL1 / RFU, COG3 / Fold change vs veh, COG3 / RFU, DIAPH2 / Fold change vs veh, DIAPH2 / RFU, SKA2 / Fold change vs veh, SKA2 / RFU, AFF3 / Fold change vs veh, AFF3 / RFU, LMF1 / Fold change vs veh, LMF1 / RFU, IPO11 / Fold change vs veh, IPO11 / RFU, DFFB / Fold change vs veh, DFFB / RFU, FOXP1 / Fold change vs veh, FOXP1 / RFU, CARD8 / Fold change vs veh, CARD8 / RFU, STRN3 / Fold change vs veh, STRN3 / RFU, ADK / Fold change vs veh, ADK / RFU, RASSF2 / Fold change vs veh, RASSF2 / RFU, WIPF1 / Fold change vs veh, WIPF1 / RFU, LARP1B / Fold change vs veh, LARP1B / RFU, RASA1 / Fold change vs veh, RASA1 / RFU, RB1 / Fold change vs veh, RB1 / RFU, PPFIA1 / Fold change vs veh, PPFIA1 / RFU, MAT2A / Fold change vs veh, MAT2A / RFU, CCT5 / Fold change vs veh, CCT5 / RFU, WDR92 / Fold change vs veh, WDR92 / RFU, CUX1 / Fold change vs veh, CUX1 / RFU, TTC7A / Fold change vs veh, TTC7A / RFU, TMEM135 / Fold change vs veh, TMEM135 / RFU, DEPTOR / Fold change vs veh, DEPTOR / RFU, CPM / Fold change vs veh, CPM / RFU, DNAJB6 / Fold change vs veh, DNAJB6 / RFU, CACNA2D3 / Fold change vs veh, CACNA2D3 / RFU, DTX4 / Fold change vs veh, DTX4 / RFU, TFCP2 / Fold change vs veh, TFCP2 / RFU, GMCL1 /// GMCL1P1 / Fold change vs veh, GMCL1 /// GMCL1P1 / RFU, AEBP2 / Fold change vs veh, AEBP2 / RFU, SNHG1 /// SNORD22 /// SNORD25 /// SNORD26 /// SNORD27 /// SNORD28 /// SNORD29 /// SNORD31 / Fold change vs veh, SNHG1 /// SNORD22 /// SNORD25 /// SNORD26 /// SNORD27 /// SNORD28 /// SNORD29 /// SNORD31 / Fold change (Aza/veh), C12orf56 (ProbeSet 11735607_a_at) / Fold change (ACY-1035/veh), C12orf56 (ProbeSet 11735607_a_at) / Fold change (Aza/veh), FGFR1OP (ProbeSet 11751329_s_at) / Fold change (ACY-1035/veh), FGFR1OP (ProbeSet 11751329_s_at) / Fold change (Aza/veh), VPS36 (ProbeSet 11739960_a_at) / Fold change (ACY-1035/veh), VPS36 (ProbeSet 11739960_a_at) / RFU SYPL1 (11715823_x_at) / Fold change /veh SYPL1 (11715823_x_at) / RFU IGFBP7 (11715501_s_at) / Fold change /veh IGFBP7 (11715501_s_at) / RFU REEP3 (11722064_at) / Fold change /veh REEP3 (11722064_at) / RFU IGLL1 (11728026_x_at) / Fold change /veh IGLL1 (11728026_x_at): dose or concentration left out as unconfirmed
# Conditions: ProbeSet 11763166_a_at; LIST B
compound,measurement,value
Nc1ccc(-c2cccs2)cc1NC(=O)c1ccc2c(c1)cc(C1CC1)n2CCN1CCOCC1 [ACY-1035],"RFU, MARS",48.43 RFU
